Measured values taken from patent publication US20250230193A1, “CYCLIC COMPOUND HAVING SELECTIVE KRAS INHIBITORY EFFECT ON HRAS AND NRAS” (CHUGAI SEIYAKU KABUSHIKI KAISHA, priority 2022, published 2025).

Experiments:
[1] = biological target: GDP-bound HRAS wild-type protein (Homo sapiens, UniProt P01112); test: Binding to HRAS by surface plasmon resonance (SPR), Single Cycle Kinetics; conditions: KD ratio, GDP-bound HRAS wild-type vs GDP-bound KRAS wild-type, SPR
[2] = biological target: GDP-bound NRAS wild-type protein (Homo sapiens, UniProt P01111); test: Binding to NRAS by surface plasmon resonance (SPR), Single Cycle Kinetics; conditions: KD ratio, GDP-bound NRAS wild-type vs GDP-bound KRAS wild-type, SPR
Sequence of GDP-bound NRAS wild-type protein (P01111 whole entry): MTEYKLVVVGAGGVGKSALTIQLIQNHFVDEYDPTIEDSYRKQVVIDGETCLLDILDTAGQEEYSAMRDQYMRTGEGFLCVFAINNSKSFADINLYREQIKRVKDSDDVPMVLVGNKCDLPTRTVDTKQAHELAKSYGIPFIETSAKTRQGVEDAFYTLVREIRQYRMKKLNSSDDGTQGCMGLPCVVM

Sequence of GDP-bound HRAS wild-type protein (P01112 whole entry): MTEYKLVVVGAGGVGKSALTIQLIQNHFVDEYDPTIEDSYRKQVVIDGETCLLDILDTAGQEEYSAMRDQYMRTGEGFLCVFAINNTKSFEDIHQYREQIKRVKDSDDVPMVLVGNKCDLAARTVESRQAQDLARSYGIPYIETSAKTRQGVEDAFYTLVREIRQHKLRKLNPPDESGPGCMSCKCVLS

| SMILES | HRAS/KRAS (ratio of KD value for HRAS to KD value for KRAS) [1] | NRAS/KRAS (ratio of KD value for NRAS to KD value for KRAS) [2] |
| --- | --- | --- |
| CCO[C@@H]1C[C@H]2C(=O)NC3(CC(C)(C)C3)C(=O)N(C)[C@@H](C3CCCC3)C(=O)N(C)[C@H](C(=O)N(C)C)CC(=O)N(C)[C@@H](C(C)C)C(=O)N[C@@H]([C@@H](C)CC)C(=O)N(C)CC(=O)N(C)[C@H]3C/C=C\CCN(C3=O)[C@@H](Cc3ccc(C(F)(F)F)cc3)C(=O)N(C)CC(=O)N[C@@H](CCc3ccc(C(F)(F)F)c(OC)c3)C(=O)N2C1 [PP1979] | A (a compound having 10 or more and less than 20 is denoted as A) | AA (a compound having 20 or more is denoted as AA) |
| CC[C@H](C)[C@@H]1NC(=O)[C@H](C2CC2)N(C)C(=O)C[C@@H](C(=O)N(C)CC)N(C)C(=O)[C@H](C2CCCC2)N(C)C(=O)C2(CC(C)(C)C2)NC(=O)[C@@H]2C[C@H](C)CN2C(=O)[C@H](CCc2cc(F)c(C(F)(F)F)c(F)c2)NC(=O)CN(C)C(=O)[C@H](Cc2ccc(C(F)(F)F)cc2)N2CC/C=C\C[C@@H](C2=O)N(C)C(=O)CN(C)C1=O [PP1980] | B (a compound having 3 or more and less than 10 is denoted as B) | A (a compound having 10 or more and less than 20 is denoted as A) |
| CCO[C@@H]1C[C@H]2C(=O)NC3(CC(C)(C)C3)C(=O)N(C)[C@@H](C3CCCC3)C(=O)N(C)[C@H](C(=O)N(C)CC)CC(=O)N(C)[C@@H](C3CC3)C(=O)N[C@@H]([C@@H](C)CC)C(=O)N(C)CC(=O)N(C)[C@H]3C/C=C\CCN(C3=O)[C@@H](Cc3ccc(C(F)(F)F)cc3)C(=O)N(C)CC(=O)N[C@@H](CCc3ccc(C(F)(F)F)c(OC)c3)C(=O)N2C1 [PP1981] | A (a compound having 10 or more and less than 20 is denoted as A) | A (a compound having 10 or more and less than 20 is denoted as A) |
| CCCN(C)C(=O)[C@@H]1CC(=O)N(C)[C@@H](C2CC2)C(=O)N[C@@H]([C@@H](C)CC)C(=O)N(C)CC(=O)N(C)[C@H]2C/C=C\CCN(C2=O)[C@@H](Cc2ccc(C(F)(F)F)cc2)C(=O)N(C)CC(=O)N[C@@H](CCc2ccc(C(F)(F)F)c(OC)c2)C(=O)N2C[C@H](OCC)C[C@H]2C(=O)NC2(CC(C)(C)C2)C(=O)N(C)[C@@H](C2CCCC2)C(=O)N1C [PP1983] | A (a compound having 10 or more and less than 20 is denoted as A) | AA (a compound having 20 or more is denoted as AA) |
| CC[C@H](C)[C@@H]1NC(=O)[C@H](C2CCC2)N(C)C(=O)C[C@@H](C(=O)N(C)CC)N(C)C(=O)[C@H](C2CCCC2)N(C)C(=O)C2(CC(C)(C)C2)NC(=O)[C@@H]2C[C@H](C)CN2C(=O)[C@H](CCc2cc(F)c(C(F)(F)F)c(F)c2)NC(=O)CN(C)C(=O)[C@H](Cc2ccc(C(F)(F)F)cc2)N2CC/C=C\C[C@@H](C2=O)N(C)C(=O)CN(C)C1=O [PP1984] | A (a compound having 10 or more and less than 20 is denoted as A) | A (a compound having 10 or more and less than 20 is denoted as A) |
| CCO[C@@H]1C[C@H]2C(=O)NC3(CC(C)(C)C3)C(=O)N(C)[C@@H](C3CCCC3)C(=O)N(C)[C@H](C(=O)N(C)C)CC(=O)N(C)[C@@H](C3CCC3)C(=O)N[C@@H]([C@@H](C)CC)C(=O)N(C)CC(=O)N(C)[C@H]3C/C=C\CCN(C3=O)[C@@H](Cc3ccc(C(F)(F)F)cc3)C(=O)N(C)CC(=O)N[C@@H](CCc3ccc(C(F)(F)F)c(OC)c3)C(=O)N2C1 [PP1987] | A (a compound having 10 or more and less than 20 is denoted as A) | A (a compound having 10 or more and less than 20 is denoted as A) |
| CCCN(C)C(=O)[C@@H]1CC(=O)N(C)[C@@H](COCC)C(=O)N[C@@H]([C@@H](C)CC)C(=O)N(C)CC(=O)N(C)[C@H]2C/C=C\CCN(C2=O)[C@@H](Cc2ccc(C(F)(F)F)cc2)C(=O)N(C)CC(=O)N[C@@H](CCc2cc(F)c(C(F)(F)F)c(F)c2)C(=O)N2C[C@H](OCC)C[C@H]2C(=O)NC2(CCC2)C(=O)N(C)[C@@H](C2CCCC2)C(=O)N1C [PP1988] | A (a compound having 10 or more and less than 20 is denoted as A) | A (a compound having 10 or more and less than 20 is denoted as A) |
| CCCN(C)C(=O)[C@@H]1CC(=O)N(C)[C@@H](CC(F)F)C(=O)N[C@@H]([C@@H](C)CC)C(=O)N(C)CC(=O)N(C)[C@H]2C/C=C\CCN(C2=O)[C@@H](Cc2ccc(C(F)(F)F)cc2)C(=O)N(C)CC(=O)N[C@@H](CCc2ccc(C(F)(F)F)c(OC)c2)C(=O)N2C[C@@H](C)C[C@H]2C(=O)NC2(CC(C)(C)C2)C(=O)N(C)[C@@H](C2CCCC2)C(=O)N1C [PP1989] | A (a compound having 10 or more and less than 20 is denoted as A) | A (a compound having 10 or more and less than 20 is denoted as A) |
| CCO[C@@H]1C[C@H]2C(=O)NC3(CCC3)C(=O)N(C)[C@@H](C3CCCC3)C(=O)N(C)[C@H](C(=O)N(C)CC)CC(=O)N(C)[C@@H](C(C)C)C(=O)N[C@@H]([C@@H](C)CC)C(=O)N(C)CC(=O)N(C)[C@H]3C/C=C\CCN(C3=O)[C@@H](Cc3ccc(C(F)(F)F)cc3)C(=O)N(C)CC(=O)N[C@@H](CCc3cc(F)c(C(F)(F)F)c(F)c3)C(=O)N2C1 [PP1990] | A (a compound having 10 or more and less than 20 is denoted as A) | A (a compound having 10 or more and less than 20 is denoted as A) |
| CCCN(C)C(=O)[C@@H]1CC(=O)N(C)[C@@H](COCC)C(=O)N[C@@H]([C@@H](C)CC)C(=O)N(C)CC(=O)N(C)[C@H]2C/C=C\CCN(C2=O)[C@@H](Cc2ccc(C(F)(F)F)cc2)C(=O)N(C)CC(=O)N[C@@H](CCc2ccc(C(F)(F)F)c(OC)c2)C(=O)N2C[C@@H](C)C[C@H]2C(=O)NC2(CC(C)(C)C2)C(=O)N(C)[C@@H](C2CCCC2)C(=O)N1C [PP1991] | A (a compound having 10 or more and less than 20 is denoted as A) | A (a compound having 10 or more and less than 20 is denoted as A) |
| CCCN(C)C(=O)[C@@H]1CC(=O)N(C)[C@@H](C(C)C)C(=O)N[C@@H]([C@@H](C)CC)C(=O)N(C)CC(=O)N(C)[C@H]2C/C=C\CCN(C2=O)[C@@H](Cc2ccc(C(F)(F)F)cc2)C(=O)N(C)CC(=O)N[C@@H](CCc2cc(F)c(C(F)(F)F)c(F)c2)C(=O)N2C[C@H](OCC)C[C@H]2C(=O)NC2(CCC2)C(=O)N(C)[C@@H](C2CCCC2)C(=O)N1C [PP1992] | B (a compound having 3 or more and less than 10 is denoted as B) | AA (a compound having 20 or more is denoted as AA) |
| CCOC[C@H]1C(=O)N[C@@H]([C@@H](C)CC)C(=O)N(C)CC(=O)N(C)[C@H]2C/C=C\CCN(C2=O)[C@@H](Cc2ccc(C(F)(F)F)cc2)C(=O)N(C)CC(=O)N[C@@H](CCc2ccc(C(F)(F)F)c(OC)c2)C(=O)N2C[C@@H](C)C[C@H]2C(=O)NC2(CC(C)(C)C2)C(=O)N(C)[C@@H](C2CCCC2)C(=O)N(C)[C@H](C(=O)N(C)CC)CC(=O)N1C [PP1993] | A (a compound having 10 or more and less than 20 is denoted as A) | A (a compound having 10 or more and less than 20 is denoted as A) |
| CCCN(C)C(=O)[C@@H]1CC(=O)N(C)[C@@H](C2CC2)C(=O)N[C@@H]([C@@H](C)CC)C(=O)N(C)CC(=O)N(C)[C@H]2C/C=C\CCN(C2=O)[C@@H](Cc2ccc(C(F)(F)F)cc2)C(=O)N(C)CC(=O)N[C@@H](CCc2cc(F)c(C(F)(F)F)c(F)c2)C(=O)N2C[C@H](OCC)C[C@H]2C(=O)NC2(CCC2)C(=O)N(C)[C@@H](C2CCCC2)C(=O)N1C [PP1994] | A (a compound having 10 or more and less than 20 is denoted as A) | AA (a compound having 20 or more is denoted as AA) |
| CCCOC[C@H]1C(=O)N[C@@H]([C@@H](C)CC)C(=O)N(C)CC(=O)N(C)[C@H]2C/C=C\CCN(C2=O)[C@@H](Cc2ccc(C(F)(F)F)cc2)C(=O)N(C)CC(=O)N[C@@H](CCc2ccc(C(F)(F)F)c(OC)c2)C(=O)N2C[C@@H](C)C[C@H]2C(=O)NC2(CC(C)(C)C2)C(=O)N(C)[C@@H](C2CCCC2)C(=O)N(C)[C@H](C(=O)N(C)CC)CC(=O)N1C [PP1995] | B (a compound having 3 or more and less than 10 is denoted as B) | A (a compound having 10 or more and less than 20 is denoted as A) |
| CCO[C@@H]1C[C@H]2C(=O)NC3(CCC3)C(=O)N(C)[C@@H](C3CCCC3)C(=O)N(C)[C@H](C(=O)N(C)CC)CC(=O)N(C)[C@@H](C3CCC3)C(=O)N[C@@H]([C@@H](C)CC)C(=O)N(C)CC(=O)N(C)[C@H]3C/C=C\CCN(C3=O)[C@@H](Cc3ccc(C(F)(F)F)cc3)C(=O)N(C)CC(=O)N[C@@H](CCc3cc(F)c(C(F)(F)F)c(F)c3)C(=O)N2C1 [PP1996] | B (a compound having 3 or more and less than 10 is denoted as B) | A (a compound having 10 or more and less than 20 is denoted as A) |
| CCCOC[C@H]1C(=O)N[C@@H]([C@@H](C)CC)C(=O)N(C)CC(=O)N(C)[C@H]2C/C=C\CCN(C2=O)[C@@H](Cc2ccc(C(F)(F)F)cc2)C(=O)N(C)CC(=O)N[C@@H](CCc2ccc(C(F)(F)F)c(OC)c2)C(=O)N2C[C@@H](C)C[C@H]2C(=O)NC2(CC(C)(C)C2)C(=O)N(C)[C@@H](C2CCCC2)C(=O)N(C)[C@H](C(=O)N(C)C)CC(=O)N1C [PP1997] | B (a compound having 3 or more and less than 10 is denoted as B) | A (a compound having 10 or more and less than 20 is denoted as A) |
